Data on 1 compound can be found in patent US9504702B2, “Methods of inhibition of protein fucosylation in vivo using fucose analogs” (Seattle Genetics, Inc., priority 2010, dated 2016).

Assay [1] relates to E-selectin binding to neutrophils. The assay is described as follows: E-selectin binding to neutrophils following oral dosing, flow cytometry. It counts as in vivo, Female Balb/c mice. As for the experimental part: The effects of a fucose analog on leukocytosis and E-selectin binding were eamined in mice. Female Balb/c mice were given oral 2-fluorofucose (SGD-2083) in the drinking water or left untreated. Mice were bled prior to dosing and then weekly for three weeks to assess circulating cell numbers and their ability to bind E-selectin. In one study, 2-fluorofucose was formulated at 1 mM, 10 mM or 100 mM in the drinking water (n=3 per group). At day 14, mice were treated with TiterMAX® Classic adjuvant (Sigma) to stimulate polyclonal, antigen non-specific antibody production by B cells, and remained on the 2-fluorofucose-containing water through day 21. In a second study, mice were given oral 2-fluorofucose formulated at 10 mM and 100 mM in the drinking water for three weeks without any other treatments (n=6). On day 21, a pool of lymph nodes (axillary, brachial, superficial inguinal, and mesenteric) from each of three animals was assessed in addition to blood. Lymph nodes were homogenized into single cell suspensions, and total cell numbers were determined by counting on a hemcytometer, using Trypan Blue for dead cell exclusion. To determine total white cell numbers/μL blood, samples of blood from individual animals were counted on a hemacytometer, using Turk's solution (0.01% gentian violet in 3% acetic acid) to exclude red blood cells (RBCs). RBCs were eliminated from the remainder of the blood by osmotic lysis for flow cytometric analysis. Cells were incubated with anti-Gr-1-FITC antibodies (BD Biosciences) to identify neutrophils, and a recombinant E-selectin-human Fc fusion protein (R&D Systems). Cells were washed and then incubated with a PE-labeled goat anti-human IgG-Fc secondary antibody (Jackson Immunoresearch) to detect bound E-selectin. Samples were collected on a FACSCalibur flow cytometer and analyzed using CellQuest software. The percentage of Gr-1+ cells was determined and absolute number of neutrophils was calculated using the total white cell number from the hemacytometer count. […] The geometric mean of the E-selectin fluorescent signal was determined from the histogram.
(A flow cytometer gives signals particle by particle.)

In assay [2] the test system is A20 murine lymphoma cells. As to the kind of experiment: Tumor vaccine model, killed A20 immunization and live A20 challenge. It counts as in vivo, Female Balb/c mice. The conditions noted are these: 50 mM in drinking water days -14 through +21. As for the experimental part: Female Balb/c mice were immunized by subcutaneous implantation of 1 million A20 murine lymphoma cells (killed by irradiation) on day −21 and day −7. Another group of mice were not given any immunization. On day 0, all mice were inoculated iv with 1.5 or 5 million live A20 cells. On days −14 through +21, mice were provided with 50 mM 2-fluorofucose (SGD-2083) in their drinking water or given regular drinking water. The 8 treatment groups were as follows: • 1. No immunization, 1.5 million live A20 cells, regular drinking water • 2. No immunization, 5 million live A20 cells, regular drinking water • 3. No immunization, 1.5 million live A20 cells, 50 mM SGD-2083 in drinking water • 4. No immunization, 5 million live A20 cells, 50 mM SGD-2083 in drinking water • 5. Immunized, 1.5 million live A20 cells, regular drinking water • 6. Immunized, 5 million live A20 cells, regular drinking water • 7. Immunized, 1.5 million live A20 cells, 50 mM SGD-2083 in drinking water • 8. Immunized, 5 million live A20 cells, 50 mM SGD-2083 in drinking water Results

For the compound `C[C@H](O)[C@@H](O)[C@@H](O)[C@H](F)C=O` [SGD-2083, 2-fluoro-2-deoxy fucose], the “effect on E-selectin binding to neutrophils” value is listed as “little effect” in assay [1] (1 mM); “increasing effects” in assay [1] (10 mM and 100 mM). For the same compound, the “E-selectin binding to neutrophils” value in assay [1] (oral in drinking water, dose-dependent) was “decreased”. In addition, the “survival after live A20 challenge” value in assay [2] (immunized) was “still alive at data collection”; in assay [2] (no immunization, versus regular drinking water), “survived a few days longer”.
